Common to all, as to format: cell-based
The test system of test [1] is RXF393. The test is described as follows: cell viability IC50 over 72 hours, RXF393 kidney cell line. Conditions: for IC50: Homo sapiens, RXF 393, RXF393 cell line, Kidney, 72 hours. Here is the method: (§1) FIG. 4 details the sensitivity of various cell lines to LP-184, showing cell death over 72 hours. Sensitivity, gauged by IC50 data, reflects how effectively a substance can inhibit a particular biological or biochemical function. […] This IC50 value, indicating the concentration needed to reduce cell viability by 50%, is key to understanding the compound's efficacy and the temporal response of the cells to the substance. Such analyses are vital for new drug development and therapeutic approaches, offering important insights into how cells react to different compounds over time.
(§2) Sensitivity, gauged by IC50 data, reflects how effectively a substance can inhibit a particular biological or biochemical function. […] This IC50 value, indicating the concentration needed to reduce cell viability by 50%, is key to understanding the compound's efficacy and the temporal response of the cells to the substance. Such analyses are vital for new drug development and therapeutic approaches, offering important insights into how cells react to different compounds over time.

Test [2] relates to ACHN. The test is described as follows: cell viability IC50 over 72 hours, ACHN kidney cell line. Conditions: Homo sapiens. The procedure:
as §1, §2

In test [3] the test system is 769P. The test is described as follows: sensitivity of renal cell line 769P to LP-184. Conditions: 769P cell line. The source says:
(§3) By contrast, the RPE1 cell lines acted as a negative control, showcasing a distinct reaction to the treatment.

In test [4] the test system is TK10. The test is described as follows: cell viability IC50 over 72 hours, TK10 kidney cell line. Conditions: Homo sapiens, TK-10. The procedure:
as §1, §2

The subject of test [5] is UO31. The test is described as follows: cell viability IC50 over 72 hours, UO31 kidney cell line. Conditions: Homo sapiens, UO-31. Here is the method: as §1, §2
In test [6] the test system is 786O. The test is described as follows: sensitivity of renal cell line 786O to LP-184. The following applies: 786O cell line.
From the text: as §3

For test [7], the system named is SN12C. The test is described as follows: cell viability IC50 over 72 hours, SN12C kidney cell line. Conditions: Homo sapiens. Here is the method: as §1, §2
For test [8], the system named is X7860. The test is described as follows: cell viability IC50 over 72 hours, X7860 kidney cell line. The procedure: as §1, §2
Test [9] deals with A498. The test is described as follows: cell viability IC50 over 72 hours, A498 kidney cell line. The following applies: for IC50: Homo sapiens, A498 cell line, Kidney, 72 hours. Here is the method:
as §1, §2

Test [10] has as its system CAK11. The test is described as follows: cell viability IC50 over 72 hours, CAK11 kidney cell line. Here is the method: as §1, §2

This note sets out measurements from US20260007617A1, “METHOD FOR TREATING RENAL CELL CARCINOMA OR CANCER” (Lantern Pharma Inc., priority 2023, published 2026).

In the case of `CC1=C(CN(O)C(N)=O)C2=C(C)C3(CC3)[C@@](C)(O)C(=O)C2=C1` [LP-184, (−)-hydroxyureamethyl acylfulvene], the IC50 (commonly the concentration needed to halve the response being measured) stood at 152 nM in test [1]; 222 nM in test [2]; 314 nM in test [4]; 178 nM in test [5]; 349 nM in test [7]; 331 nM in [8]. For the same molecule, the figures for the IC50 in test [9] and in test [10] were 179 nM and 282 nM, respectively. The “sensitivity of cell line (in words)” value in [1] (RXF393 clear cell renal carcinoma cell line) was “high sensitivity”; in test [3], “low sensitivity”; in test [6], “low sensitivity”; in test [9] (A498 clear cell renal carcinoma cell line), “high sensitivity”.
Consider `CC1=C(CN(O)C(N)=O)C2=C(C)C3(CC3)[C@](C)(O)C(=O)C2=C1` [LP-284, (+)-hydroxyureamethyl acylfulvene], for which the IC50 was 328 nM in test [1]; 1130 nM in test [2]; 2010 nM in [4]; 254 nM in test [5]; 2620 nM in [7]; 2240 nM in test [8]. The IC50 in [9] was determined as 1350 nM; in test [10] it was 1910 nM.
